The text below walks through data of patent US11446287B2, “Compounds and methods for EP300 or CBP modulation and indications therefor” (Opna Immuno-Oncology SA, priority 2019, dated 2022).

pIC50: −log10 of the molar value.

T1 sequence (Q92793 1081-1197): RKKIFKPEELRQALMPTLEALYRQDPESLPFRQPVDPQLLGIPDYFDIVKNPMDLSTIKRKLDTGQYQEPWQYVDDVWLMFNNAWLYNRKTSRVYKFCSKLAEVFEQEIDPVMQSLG

The test concerns the target T1, Recombinant human CBP containing the bromodomain (CBP-BD (1043-1159)) (Homo sapiens, UniProt Q92793).
T1 construct: Recombinant human CBP bromodomain (CBP-BD (1043-1159)); made in house; host or cells: E. coli BL21-CodonPlus (DE3), modified pET vector
The experiment in a line: CBP Alphascreen binding assay. The conditions noted are these: read-out: CREBBP (CBP) IC50. The essentials: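 Buffer: 50 mM HEPES pH 7.5, 50 mM NaCl, 0.01% BSA, 0.01% Triton X-100, 2 mM DTT. The signal was normalised to plate controls and fitted with a four-parameter curve to give IC50.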
In general terms: Alpha assays give light when donor and acceptor beads are brought close together.
On to `Cc1noc(C)c1-c1cnc2c(c1)c(-c1c(F)cc(C(=O)O)cc1OC(C)C)cn2C(C1CC1)C1CC1` [P-0369, 4-(1-(dicyclopropylmethyl)-5-(3,5-dimethylisoxazol-4-yl)-1H-pyrrolo[2,3-b]pyridin-3-yl)-3-fluoro-5-isopropoxybenzoic acid], for which the negative logarithm of the IC50 (pIC50) was 6.00 to 10.00.

For `CCOc1cc(C(=O)O)cc(Cl)c1-c1cn(C(C2CC2)C2CC2)c2ncc(-c3c(C)noc3C)cc12` [P-0370, 3-chloro-4-(1-(dicyclopropylmethyl)-5-(3,5-dimethylisoxazol-4-yl)-1H-pyrrolo[2,3-b]pyridin-3-yl)-5-ethoxybenzoic acid], the pIC50 was 6.00 to 10.00.

Regarding `CCOc1cc(C(=O)O)cc(Cl)c1-c1cn(C2CCOCC2)c2ncc(-c3c(C)noc3C)cc12` [P-0371, 3-chloro-4-(5-(3,5-dimethylisoxazol-4-yl)-1-(tetrahydro-2H-pyran-4-yl)-1H-pyrrolo[2,3-b]pyridin-3-yl)-5-ethoxybenzoic acid], the pIC50 was 6.00 to 10.00.

In the case of `Cc1noc(C)c1-c1cnc2c(c1)c(-c1c(Cl)cc(C(=O)O)cc1OC(C)C)cn2C1CCOCC1` [P-0372, 3-chloro-4-(5-(3,5-dimethylisoxazol-4-yl)-1-(tetrahydro-2H-pyran-4-yl)-1H-pyrrolo[2,3-b]pyridin-3-yl)-5-isopropoxybenzoic acid], the pIC50 was 6.00 to 10.00.

For the compound `CCOc1cc(C(=O)O)nc(OCC)c1-c1cn(C2CCOCC2)c2ncc(-c3c(C)noc3C)cc12` [P-0373, 5-(5-(3,5-dimethylisoxazol-4-yl)-1-(tetrahydro-2H-pyran-4-yl)-1H-pyrrolo[2,3-b]pyridin-3-yl)-4,6-diethoxypicolinic acid], the pIC50 was 6.00 to 10.00.

As for `CCOc1cc(C(=O)O)c(F)c(OCC)c1-c1cn(C2CCOCC2)c2ncc(-c3c(C)noc3C)cc12` [P-0374, 4-(5-(3,5-dimethylisoxazol-4-yl)-1-(tetrahydro-2H-pyran-4-yl)-1H-pyrrolo[2,3-b]pyridin-3-yl)-3,5-diethoxy-2-fluorobenzoic acid], the pIC50 was 6.00 to 10.00.

With `CCOc1cc(C(=O)O)c(F)cc1-c1cn(C2CCOCC2)c2ncc(-c3c(C)noc3C)cc12` [P-0375, 4-(5-(3,5-dimethylisoxazol-4-yl)-1-(tetrahydro-2H-pyran-4-yl)-1H-pyrrolo[2,3-b]pyridin-3-yl)-5-ethoxy-2-fluorobenzoic acid], the pIC50 was 6.00 to 10.00.

For `CCOc1nc(C(=O)O)ccc1-c1cn(C2CCOCC2)c2ncc(-c3c(C)noc3C)cc12` [P-0376, 5-(5-(3,5-dimethylisoxazol-4-yl)-1-(tetrahydro-2H-pyran-4-yl)-1H-pyrrolo[2,3-b]pyridin-3-yl)-6-ethoxypicolinic acid], the pIC50 is 6.00 to 10.00.

On to `CCOc1cc(C(=O)O)c(F)cc1-c1cn(-c2ccccc2F)c2ncc(-c3c(C)noc3C)cc12` [P-0377, 4-(5-(3,5-dimethylisoxazol-4-yl)-1-(2-fluorophenyl)-1H-pyrrolo[2,3-b]pyridin-3-yl)-5-ethoxy-2-fluorobenzoic acid], for which the negative-log IC50 (pIC50) is 6.00 to 10.00.

Take `Cc1noc(C)c1-c1cnc2c(c1)c(-c1ccc(C(=O)O)cc1OC(F)(F)F)cn2C1CCC1` [P-0378, 4-(1-cyclobutyl-5-(3,5-dimethylisoxazol-4-yl)-1H-pyrrolo[2,3-b]pyridin-3-yl)-3-(trifluoromethoxy)benzoic acid]: the pIC50 was 6.00 to 10.00.

For the compound `Cc1noc(C)c1-c1cnc2c(c1)c(-c1ccc(C(=O)O)cc1OC1CC1)cn2C1CCOCC1` [P-0379, 3-cyclopropoxy-4-(5-(3,5-dimethylisoxazol-4-yl)-1-(tetrahydro-2H-pyran-4-yl)-1H-pyrrolo[2,3-b]pyridin-3-yl)benzoic acid], the pIC50 is 6.00 to 10.00.

For `Cc1noc(C)c1-c1cnc2c(c1)c(-c1c(Cl)cc(C(=O)O)cc1OC(F)(F)F)cn2C(C1CCC1)C1CCC1` [P-0380, 3-chloro-4-(1-(dicyclobutylmethyl)-5-(3,5-dimethylisoxazol-4-yl)-1H-pyrrolo[2,3-b]pyridin-3-yl)-5-(trifluoromethoxy)benzoic acid], the pIC50 was 6.00 to 10.00.

As for `Cc1noc(C)c1-c1cnc2c(c1)c(-c1c(Cl)cc(C(=O)O)cc1OC1CC1)cn2C1CCOCC1` [P-0381, 3-chloro-5-cyclopropoxy-4-(5-(3,5-dimethylisoxazol-4-yl)-1-(tetrahydro-2H-pyran-4-yl)-1H-pyrrolo[2,3-b]pyridin-3-yl)benzoic acid], the pIC50 was 6.00 to 10.00.

`Cc1noc(C)c1-c1cnc2c(c1)c(-c1ccc(C(=O)O)cc1OC(F)(F)F)cn2C1CCCC1` [P-0382, 4-(1-cyclopentyl-5-(3,5-dimethylisoxazol-4-yl)-1H-pyrrolo[2,3-b]pyridin-3-yl)-3-(trifluoromethoxy)benzoic acid]: the pIC50 was 6.00 to 10.00.

As to `Cc1noc(C)c1-c1cnc2c(c1)c(-c1ccc(C(=O)O)cc1OC(F)(F)F)cn2C1(C)CCOC1` (stereo not shown) [P-0383, 4-(5-(3,5-dimethylisoxazol-4-yl)-1-(3-methyltetrahydrofuran-3-yl)-1H-pyrrolo[2,3-b]pyridin-3-yl)-3-(trifluoromethoxy)benzoic acid], the pIC50 was 6.00 to 10.00.

In the case of `Cc1noc(C)c1-c1cnc2c(c1)c(-c1ccc(C(=O)O)cc1OC(F)(F)F)cn2-c1cnc(C2CC2)nc1` [P-0384, 4-(1-(2-cyclopropylpyrimidin-5-yl)-5-(3,5-dimethylisoxazol-4-yl)-1H-pyrrolo[2,3-b]pyridin-3-yl)-3-(trifluoromethoxy)benzoic acid], the pIC50 is 6.00 to 10.00.

For `Cc1noc(C)c1-c1cnc2c(c1)c(-c1ccc(C(=O)O)cc1OC(F)(F)F)cn2C1(C)CCOCC1` [P-0385, 4-(5-(3,5-dimethylisoxazol-4-yl)-1-(4-methyltetrahydro-2H-pyran-4-yl)-1H-pyrrolo[2,3-b]pyridin-3-yl)-3-(trifluoromethoxy)benzoic acid], the pIC50 was 6.00 to 10.00.

Take `Cc1noc(C)c1-c1cnc2c(c1)c(-c1c(Cl)cc(C(=O)O)cc1OC(F)(F)F)cn2-c1cnc(C2CC2)nc1` [P-0386, 3-chloro-4-(1-(2-cyclopropylpyrimidin-5-yl)-5-(3,5-dimethylisoxazol-4-yl)-1H-pyrrolo[2,3-b]pyridin-3-yl)-5-(trifluoromethoxy)benzoic acid]: the pIC50 was 6.00 to 10.00.

With `Cc1noc(C)c1-c1cnc2c(c1)c(-c1ccc(C(=O)O)cc1OCC(F)F)cn2-c1cnc(C2CC2)nc1` [P-0387, 4-(1-(2-cyclopropylpyrimidin-5-yl)-5-(3,5-dimethylisoxazol-4-yl)-1H-pyrrolo[2,3-b]pyridin-3-yl)-3-(2,2-difluoroethoxy)benzoic acid], the pIC50 is 6.00 to 10.00.

The pIC50 is −log10 of the IC50, conventionally taken in molar units.
